Reference: patent US6897238B2, “Topical aminolevulinic acid-photodynamic therapy for the treatment of acne vulgaris” (General Hospital Corporation, priority 2000, dated 2005)

Legend:
acne vulgaris [1] = test: Inflammatory acne score, open-label human study of topical ALA-PDT on the back
P. acnes = test: Fluorescence photography of follicular bacterial porphyrin (red fluorescent dots); type: in vivo, human
Protocol: (§1) Sites were marked withtemplates to precisely relocate each test area. […] Then, 20% topical ALA in a hydroalcoholic vehicle (Levulan, a gift from DUSA pharmaceutical) was applied for 3h under occlusion with plastic film (Saran wrap), and 150 J/cm^2 broad band light (550-700 nm) was given to the ALA-PDT and light alone areas. […] In both groups, subjects returned one week after treatments for clinical evaluations and at weeks 2, 3, 10 and 20 for clinical, fluorescence, and SER evaluations.
A Nikon E2N digital camera body with a Nikon 105 mm macro lens was used. A filter (Corion LL-550S) was placed on the lens to block light below 550 nm. The excitation light source was composed of two synchronized photoflashes with Norman 400 watt-second lampheads (FT400/FT6), mounted on a stationary tower with angles of incidence of 60 degrees bilaterally. Two 400 nm bandpass filters with 5 nm bandwidth (Corion S40-400S) were placed on the flashes. By this method, the punctate orange-red fluorescence of hair follicles populated with P. acnes was seen. Fluorescence emission has been attributed to bacterial coproporphyrin III and protoporphyrin IX, and intensity of fluorescence is related to the P. acnes population. Fluorescence photography was performed at week, 0, 2, 3, 10 and 20 in all sites. The number of punctate red flourescent dots was counted blindly for each test area.
(§2) Statistical significance was defined as p value of less than 0.05.

[2] = Adverse effects, clinical evaluation and subjective sensation; type: in vivo, human; conditions: for Subjects with burning sensation / Subjects with itching: multiple ALA-PDT
Protocol: Adverse effects were scored by clinical evaluation of erythema, edema, loss of epidermis, hyperpigmentation, hemorrhage, vesiculation, and exfoliation on a visual-analogue scale from 0 to 3 (0=absent, 1=mild, 2=moderate, 3=severe) for each finding. Subjective sensation of pain, burning, and itching was generally maximum about 10 minutes into light exposure, and was ranked at that time and the end of treatment (1 hour), by subjects on a scale from 0 to 3 similar to above.

pilosebaceous units = test: ALA-induced PpIX fluorescence in skin (fluorescence microscopy / photography); type: in vivo, human
Protocol: Punch biopsy specimens (4 mm) were taken immediately after PDT, a few weeks after PDT, and at 20 weeks from both the untreated control and ALA-PDT areas. […] Histologic examination was performed. […] To determine the level of PpIX converted from ALA in the pilosebaceous units, punch biopsy specimens were also taken from ALA-treated areas after 3 h occlusion as described above.

acne vulgaris [3] = test: Global clinical-improvement grading by blinded dermatologists from photographs; type: in vivo, human
Protocol: as §1
Clinical improvement was globally assessed by 3 dermatologists unaware of the status of treatment, who blindly graded changes in acne from fixed-magnification clinical photographs, after being shown a small set standardized series of training slides not used in the data evaluation. The grading scale was defined as −3 for >50% exacerbation, −2 for 25^+−50% exacerbation, −1 for 1^+−25% exacerbation, 0 if unchanged, 1 for 1^+−25% improvement, 2 for 25^+−50% improvement, 3 for 50^+−75% improvement, 4 for 75^+−99% improvement, and 5 for 100% improvement, as compared to the baseline.
as §2

sebaceous glands [4] = test: Sebum excretion rate (SER) by Sebutape; conditions: ALA plus red light
sebaceous glands [5] = test: Histologic examination and planimetry of punch biopsies; conditions: for Reduction of cytoplasm/nuclear cross-section area ratio in sebocyte relative to non-treatment: 3 weeks
[6] = single treatment, ALA plus red light
[7] = multiple treatments, ALA plus red light
[8] = multiple-treatment subjects, after 4 treatments
[9] = single-treatment subjects, at 20 weeks
[10] = multiple treatment group, 20 weeks after the last treatment
[11] = twenty weeks after a single ALA-PDT treatment

In the case of `NCC(=O)CCC(=O)O` [ALA, 5-aminolevulinic acid], the “Inflammatory acne score, multiple versus single treatment group, all follow-up visits combined” value (acne vulgaris [1]; ALA alone, P=0.007) is reported as “better improvement than the single treatment group”, the “Inflammatory acne score, multiple versus single treatment group” value (acne vulgaris [1]; ALA plus red light, first 3 follow-up visits) is reported as “significantly better improvement than the single ALA-PDT treatment group” and the “Inflammatory acne score, multiple versus single treatment group, all follow-up visits combined” value (acne vulgaris [1]; ALA plus red light, p<0.001) is reported as “better improvement than the single treatment group”. For the same molecule, the “Duration of clinical and statistically significant clearance of inflammatory acne” value (acne vulgaris [1]; after a single treatment) was no less than 10 weeks, the “Duration of clinical and statistically significant clearance of inflammatory acne” value (acne vulgaris [1]; after multiple ALA-PDT treatments) was “at least 20 weeks” and the “Inflammatory acne score, change from baseline” value (acne vulgaris [1]; multiple (4 weekly) treatments, ALA plus red light) was “obvious and statistically significant improvement in acne at all follow-up visits”. The “Inflammatory acne score, change from baseline” value (acne vulgaris [1]; multiple treatments, ALA alone, no light) was “no improvement”, the “Inflammatory acne score, change from baseline versus the other three sites” value (acne vulgaris [1]; multiple treatments, ALA plus red light, all visits, p<0.05) was “significantly greater” and the “Inflammatory acne score, ALA alone versus untreated area” value (acne vulgaris [1]; multiple treatments, visit 2 (week 2) only, p=0.046) was “barely-significant improvement”. The “Inflammatory acne score, change from baseline” value (acne vulgaris [1]; single treatment, 20% topical ALA 3 h occlusion + 150 J/cm^2 red light) was “improvement in acne, which was statistically significant starting 3 weeks after treatment”, the “Inflammatory acne score, change from baseline” value (acne vulgaris [1]; single treatment, ALA alone, no light, all visits) was “slightly worse acne not significantly different than baseline” and the “Inflammatory acne score, change from baseline versus the other three areas” value (acne vulgaris [1]; [6]) was “the differences were statistically significant at 3, 10, 20 weeks”. For the same molecule, the “Fluorescence related to P. acnes, multiple versus single treatment group” value (P. acnes; ALA plus red light, four times versus single) was “better, but not significant, improvement”, the “Duration of significant decrease of fluorescence of endogenous porphyrins associated with P. acnes” value (P. acnes; after both single and multiple ALA-PDT) was “at least 20 weeks” and the “Fluorescence related to P. acnes versus baseline” value (P. acnes; multiple treatments, ALA alone, week 10 and 20) was “significantly greater fluorescence than baseline”. For the same molecule, the “Fluorescence related to P. acnes versus baseline” value (P. acnes; [7]) was “significant loss of P. acnes, fluorescence, starting at follow-up visit 2”, the “Fluorescence related to P. acnes, difference to the other 3 test sites” value (P. acnes; [7]) was “statistically significant for all visits” and the “Fluorescence related to P. acnes versus baseline” value (P. acnes; [6]) was “significant loss of fluorescence related to P. acnes, which lasted for all 4 follow-up visits”. For the same molecule, the “Fluorescence related to P. acnes, difference to the other 3 test sites” value (P. acnes; [6]) was “statistically significant for all visits”, the “Patients with acute eruption of inflammatory acneiform lesions” value ([2]; ALA-PDT sites only, both groups) was 100% and the “Exfoliation after 3 weeks post treatment” value ([2]; all subjects) was “None of the subjects had exfoliation”. The Scarring ([2]; all subjects, both groups) was “no site in any subject had any scarring”, the “Erythema and edema, time course” value ([2]; both groups, 1 hour after treatment) was “substantial decrease in erythema and edema by 1 hour after treatment” and the “Subjects with burning sensation” value ([2]; treatment 1) was 9%. The Subjects with itching ([2]; treatment 1) was 73%, the “Subjects with burning sensation” value ([2]; treatment 2) was 67% and the Subjects with itching ([2]; treatment 2) was 73%. For the same molecule, the “Subjects with burning sensation” value ([2]; treatment 3) was 67%, the Subjects with itching ([2]; treatment 3) was 55% and the “Subjects with burning sensation” value ([2]; treatment 4) was 73%. The Subjects with itching ([2]; treatment 4) was 55%, the “Subjects still showing some degree of pigmentation” value ([2]; multiple PDT, 20 weeks after treatment) was 55% and the “Patients who could not continue the weekly treatment scheme and had to postpone their next treatment” value ([2]; multiple treatment group) was “Six”. The “Acneiform lesions induced by subsequent treatments” value ([2]; multiple-treatment group) was “almost no new acneiform lesions were observed after treatment 4”, the “Duration of transient purpura, average” value [2, 8] was 1 week and the “Subjects with superficial but very prominent exfoliation, transient purpura and partial loss of epidermis” value [2, 8] was 10%. For the same molecule, the Main subjective discomfort ([2]; single ALA-PDT group) was “itching was the main discomfort in the single ALA-PDT group, and pain was the least”, the “Subjects in whom erythema faded away completely” value [2, 9] was 82% and the “Subjects in whom hyperpigmentation faded away completely” value [2, 9] was 91%. The “Porphyrin fluorescence of fresh-frozen sections compared with untreated skin” value (pilosebaceous units; after ALA application, 3 h occlusion, fluorescence microscopy) was “bright porphyrin fluorescence in epidermis and pilosebaceous units”, the “PpIX fluorescence, sebocytes versus follicular epithelial cells” value (pilosebaceous units; after ALA application, fluorescence microscopy) was “brighter PpIX fluorescence in sebocytes than in the adjacent follicular epithelial cells” and the “ALA-induced PpIX fluorescence, acne lesions versus surrounding tissue” value (pilosebaceous units; fluorescence photography) was “greater in acne lesions than surrounding tissue”. For the same molecule, the “Global clinical-improvement score, multiple versus single treatment group” value (acne vulgaris [3]; ALA plus red light, first 2 follow-up visits (week 1 & 2)) was “significantly better improvement than the single ALA-PDT treatment group”, the “Duration of obvious and significant improvement of acne, blinded clinical assessment” value (acne vulgaris [3]; after 4 treatments) was “at least 20 weeks” and the “Duration of obvious and significant improvement of acne, blinded clinical assessment” value (acne vulgaris [3]; after a single ALA-PDT treatment) was “at least 10 weeks”. The “Global clinical-improvement score versus baseline” value (acne vulgaris [3]; multiple treatments, ALA alone, visit 2 and visit 5) was “improvement reaching statistical significance”, the “Global clinical-improvement score versus baseline” value (acne vulgaris [3]; [7]) was “Significant improvement” and the “Global clinical-improvement score versus the other 3 sites” value (acne vulgaris [3]; [7]) was “significantly better improvement in the ALA-PDT treated site than the other 3 sites, at all follow-up visits”. For the same molecule, the “Global clinical-improvement score versus baseline” value (acne vulgaris [3]; [6]) was “significant global improvement starting week 3 and extending through week 20”, the “Global clinical-improvement score, difference to the other three treatment sites” value (acne vulgaris [3]; [6]) was “statistically significant at weeks 3 and 10” and the “Sebum excretion after PDT (summary)” value (sebaceous glands [4]) was “eliminated for several weeks, and decreased for 20 weeks”. For the same molecule, the “SER, multiple versus single treatment group” value (sebaceous glands [4]; difference significant only at 20 weeks, all visits combined p=0.001) was “suppressed SER more than single ALA-PDT”, the “SER, difference to the other 3 areas” value (sebaceous glands [4]; multiple treatments) was “statistically significant at all 4 visits” and the “Sebum excretion rate (SER) versus baseline” value (sebaceous glands [4]; multiple treatments) was “significant decrease in SER, at all follow-up visits”. For the same molecule, the “SER versus the other test sites” value (sebaceous glands [4]; single treatment) was “significantly lower than any other test sites, at each follow-up visit”, the “Sebum excretion rate (SER) versus baseline” value (sebaceous glands [4]; single treatment, weeks 2, 3, 20) was “significant decrease of SER” and the “Reduction of sebaceous gland size compared with untreated control area” value (sebaceous glands [5]; 3 weeks after multiple ALA-PDT) was 55%. The “Reduction of sebaceous gland size compared with untreated control area” value (sebaceous glands [5]; 3 weeks after single ALA-PDT) was 30%, the “Histologic finding in sebaceous gland lobules” value (sebaceous glands [5]; 20 weeks after multiple ALA-PDT treatments) was “complete destruction or 25 marked atrophy of sebaceous gland lobules” and the “Reduction of sebaceous gland size, mean decrease” value (sebaceous glands [5]; immediately after PDT) was 40%. For the same molecule, the “Reduction of cytoplasm/nuclear cross-section area ratio in sebocyte relative to non-treatment” value (sebaceous glands [5]; multiple PDT) was 56%, the “Reduction of sebaceous gland size” value (sebaceous glands [5]; [10]) was 45% and the “Reduction of sebaceous gland size, range” value (sebaceous glands [5]; [10]) was 15-80%. The “Reduction of sebocyte cytoplasm/nuclear area” value (sebaceous glands [5]; [10]) was 46%, the “Reduction of sebocyte cytoplasm/nuclear area, range” value (sebaceous glands [5]; [10]) was 39-53% and the “Reduction of cytoplasm/nuclear cross-section area ratio in sebocyte relative to non-treatment” value (sebaceous glands [5]; single PDT) was 38%. For the same molecule, the “Reduction of sebaceous gland size, mean decrease” value (sebaceous glands [5]; [11]) was 17% and the “Sebocyte cytoplasm/nuclear area ratio” value (sebaceous glands [5]; [11]) was “not reduced”.
